Test results taken from patent publication US20230131899A1, “INHIBITORS OF MICROBIALLY INDUCED AMYLOID” (Axial Therapeutics, Inc., priority 2020, published 2023).
Where two headings read alike, the source gives them in different places.

Assays:
human α-synuclein = molecular target: T1, human α-synuclein (Homo sapiens, UniProt P37840); assay: Cell-free Thioflavin T assay of α-synuclein aggregation (αSyn ThT Assay); assay type: biochemical; details: αSyn 50 μM
T1 construct: the full-length gene for untagged human α-synuclein was inserted; made in house; host or cells: E. coli BL21(DE3), plasmid derived from pT7 or pET11a
Protocol: To assess the effects of compounds on aggregation of α-synuclein, a cell-free assay was performed using purified α-synuclein and Thioflavin T. In the assay, human α-synuclein was expressed in E. coli BL21(DE3) from a plasmid derived from pT7 or pET11a into which the full-length gene for untagged human α-synuclein was inserted. Cells were induced at OD600 0.6 with 0.8 mM IPTG for 4 hours, harvested by centrifugation and suspended in a volume of lysis buffer (10 mM Tris, pH 8.0, 1 mM EDTA, and 1 mM PMSF) equivalent to one-tenth the volume of culture and lysed by boiling for 20 minutes. Cell debris was pelleted by centrifugation, clarified lysate was treated with 10% streptomycin sulfate at 136 μL/mL followed by glacial acetic acid at 228 μL/mL, lysate was centrifuged, supernatant was transferred to a fresh tube and protein was precipitated via addition of an equal volume of saturated (100%) ammonium sulfate and incubated at 4° C. on a rocking shaker for 1 hour. The protein was pelleted via centrifugation and washed with an equal volume of 100 mM ammonium acetate in chilled ethanol, pelleted via centrifugation, washed twice with chilled ethanol, dried overnight, resuspended in 50 mM potassium phosphate buffer pH 7.3 or 10 mM Tris pH 7.4, and passed through a 50 kDa cut-off column. Immediately prior to use, the purified α-synuclein was filtered with a 0.2 μm nylon filter. The assay was conducted in 96-well black microplates with a single 1-2 mm glass bead in each well, 20-40 μM ThioflavinT, 1% DMSO, α-synuclein at 50 μM and compounds at 20-100 μM. Plates were sealed with sealing tape (ThermoFisher 232701), incubated at 37° C. in a Tecan Nano F200 plate reader with excitation at 438 nm using a 439 nm filter with a bandwidth of 8 nm, and emission at 495 nm with a 490 nm filter with a bandwidth of 10 nm. During the assay, plates were shaken continuously or were shaken for 999 seconds every 18 minutes. Readings were performed hourly for up to 73 hours. The effect of compounds on α-synuclein aggregation in the assay was determined with data at 36, 47, 48 or 72 hours or from the final timepoint of the assay, prior to or roughly near the time when ThT fluorescence plateaued in the vehicle control wells. The vehicle controls contained all components of the assay except compounds and represented the level of α-synuclein aggregation in the absence of an inhibitor or accelerator. Fluorescence values for each compound with α-synuclein were first adjusted by subtracting the average fluorescence of the compound in the absence of α-synuclein. These adjusted values were normalized by dividing them by the average fluorescence at the same timepoint in the vehicle control wells, and the average normalized fluorescence with the compound was expressed as a percentage of the average fluorescence observed in untreated controls. Percent inhibition of α-synuclein aggregation by a compound was determined by subtracting the percent average fluorescence with the compound relative to the average vehicle control from 100%. A higher positive percent inhibition reflects greater inhibition of α-synuclein aggregation, while a negative percent inhibition reflects potentiation of α-synuclein aggregation.
Alternate concentrations of Thioflavin T may be used in the assay and may affect the fluorescent signal and sensitivity of the assay. Alternate concentrations of α-synuclein may be used and such alterations may affect aggregation kinetics of α-synuclein in the assay. Alternate concentrations of compounds may be tested in the assay, and dose-responses may be evaluated. Additional reagents may be added to the assay which may affect aggregation kinetics of α-synuclein depending on their concentration, including detergents such as sodium dodecyl sulfate, sodium chloride, dithiotreitol, or bovine serum albumin. Shaking may be included at alternate intervals in the assay and may affect α-synuclein aggregation kinetics. […]

[1] = tested on: CsgA gene expression (csgBAC promoter-GFP reporter) in E. coli UTI89; assay: In vitro live cell fluorescent reporter assay of CsgA transcription (Reporter Assay); assay type: cell-based; details: Escherichia coli
Procedure, shortened: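 Chromosomal single-copy csgBAC promoter–GFP reporter in E. coli UTI89, started at OD600 0.003 in YESCA broth with compound (0.14–100 μM, 1% DMSO), 20 h at 27 °C. GFP (ex 485/em 525 nm) background-subtracted and normalized to vehicle; IC50 and X[50] from curve fits. OD600 tracked growth effects.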

[2] = read-out: Reporter Assay Abs IC50 (μM), median Abs IC50 in the CsgA reporter assay, N/A = maximum expression reduction is <50% of control
[3] = class symbol, compounds 100 μM, read-out: αSyn ThT Assay % inhibition, activity range
[4] = mean percent inhibition relative to DMSO control, compounds 100 μM, read-out: αSyn ThT Assay % inhibition
[5] = read-out: Reporter Assay Abs IC50, activity range, class symbol

SMILES | inhibition at 100 µM (human α-synuclein; mean % inhibition of αSyn aggregation relative to DMSO control, compounds at 100 μM, read-out: αSyn ThT Assay % Inhibition) | inhibition at 100 µM (human α-synuclein; compounds at 100 μM, class symbol, read-out: αSyn ThT Assay % Inhibition (activity range)) | IC50 ([1]; read-out: Reporter Assay Abs IC50 (activity range), median Abs IC50 in the CsgA reporter assay, class symbol) | IC50 [1, 2] | inhibition at 100 µM (human α-synuclein; [3]) | inhibition at 100 µM (human α-synuclein; [4]) | IC50 [1, 5]
O=C(O)C1CN(CCCCCCN2CC(C(=O)O)n3c(c(-c4cccc(C(F)(F)F)c4)c(Cc4cccc5ccccc45)cc3=O)S2(=O)=O)S(=O)(=O)c2c(-c3cccc(C(F)(F)F)c3)c(Cc3cccc4ccccc34)cc(=O)n21 (racemic) [Compound 043, 2,2′-(hexane-1,6-diyl)bis(8-(naphthalen-1-ylmethyl)-6-oxo-9-(3-(trifluoromethyl)phenyl)-3,4-dihydro-2H,6H-pyrido[1,2-e][1,2,5]thiadiazine-4-carboxylic acid 1,1-dioxide)] | 72% | > 60% | < 1.3 µM | 0.7 µM | – | – | –
N#Cc1ccccc1CN1CC(C(=O)O)n2c1c(-c1cccc(C(F)(F)F)c1)c(Cc1cccc3ccccc13)c(Cl)c2=O (stereo not drawn) [Compound 165, 6-chloro-1-(2-cyanobenzyl)-7-(naphthalen-1-ylmethyl)-5-oxo-8-(3-(trifluoromethyl)phenyl)-1,2,3,5-tetrahydroimidazo[1,2-a]pyridine-3-carboxylic acid] | – | – | – | 0.8 µM | 11 to 30% | 30% | < 1.3 µM
N#Cc1ccc(CN2CC(C(=O)O)n3c2c(-c2cccc(C(F)(F)F)c2)c(Cc2cccc4ccccc24)c(Cl)c3=O)cc1 (stereo not drawn) [Compound 171, 6-chloro-1-(4-cyanobenzyl)-7-(naphthalen-1-ylmethyl)-5-oxo-8-(3-(trifluoromethyl)phenyl)-1,2,3,5-tetrahydroimidazo[1,2-a]pyridine-3-carboxylic acid] | – | – | – | 1.1 µM | 31 to 60% | 32% | < 1.3 µM
COc1ccccc1CN1CC(C(=O)O)n2c1c(-c1cccc(C(F)(F)F)c1)c(Cc1cccc3ccccc13)c(Cl)c2=O (stereo not drawn) [Compound 195, 6-chloro-1-(2-methoxybenzyl)-7-(naphthalen-1-ylmethyl)-5-oxo-8-(3-(trifluoromethyl)phenyl)-1,2,3,5-tetrahydroimidazo[1,2-a]pyridine-3-carboxylic acid] | – | – | – | 1.8 µM | 31 to 60% | 45% | 1.3 to 4.5 µM
O=C(O)C1CN(Cc2ccccc2)c2c(-c3cccc(C(F)(F)F)c3)c(Cc3ccc(Cl)c4ccccc34)cc(=O)n21 (stereo not drawn) [Compound 232, 1-benzyl-7-((4-chloronaphthalen-1-yl)methyl)-5-oxo-8-(3-(trifluoromethyl)phenyl)-1,2,3,5-tetrahydroimidazo[1,2-a] pyridine-3-carboxylic acid] | – | – | – | 0.7 µM | 11 to 30% | 23% | < 1.3 µM
COc1cc(Cc2cc(=O)n3c(c2-c2cccc(C(F)(F)F)c2)N(Cc2ccccc2)CC3C(=O)O)c2ccccc2c1 (stereo not drawn) [Compound 233, 1-benzyl-7-((3-methoxynaphthalen-1-yl)methyl)-5-oxo-8-(3-(trifluoromethyl)phenyl)-1,2,3,5-tetrahydroimidazo[1,2-a]pyridine-3-carboxylic acid] | – | – | – | 0.6 µM | 31 to 60% | 50% | < 1.3 µM
COc1cc(Cc2c(-c3cccc(C(F)(F)F)c3)c3n(c(=O)c2Cl)C(C(=O)O)CN3Cc2ccccc2)c2ccccc2c1 (stereo not drawn) [Compound 234, 1-benzyl-6-chloro-7-((3-methoxynaphthalen-1-yl)methyl)-5-oxo-8-(3-(trifluoromethyl)phenyl)-1,2,3,5-tetrahydroimidazo[1,2-a]pyridine-3-carboxylic acid] | – | – | – | 0.4 µM | > 60% | 70% | < 1.3 µM
O=C(O)C1CN(CCc2cccc3ccccc23)c2c(-c3cccc(C(F)(F)F)c3)c(Cc3cccc4ccccc34)c(Cl)c(=O)n21 (stereo not drawn) [Compound 238, 6-chloro-1-(2-(naphthalen-1-yl)ethyl)-7-(naphthalen-1-ylmethyl)-5-oxo-8-(3-(trifluoromethyl)phenyl)-1,2,3,5-tetrahydroimidazo[1,2-a]pyridine-3-carboxylic acid] | – | – | – | 0.7 µM | > 60% | 94% | < 1.3 µM
CC(C)(C)c1ccc(CCN2CC(C(=O)O)n3c2c(-c2cccc(C(F)(F)F)c2)c(Cc2cccc4ccccc24)c(Cl)c3=O)cc1 (stereo not drawn) [Compound 239, 1-(4-(tert-butyl)phenethyl)-6-chloro-7-(naphthalen-1-ylmethyl)-5-oxo-8-(3-(trifluoromethyl)phenyl)-1,2,3,5-tetrahydroimidazo[1,2-a]pyridine-3-carboxylic acid] | – | – | – | 0.6 µM | 31 to 60% | 58% | < 1.3 µM
